According to publication PMC3479967 (Evidence-based Complementary and Alternative Medicine : eCAM, 2012):

Key:
UGT1A1 = molecular target: T1, UGT1A1 (Homo sapiens, UniProt P22309); test: Inhibition of recombinant UGT1A1 activity (4-MU glucuronidation)
T1 sequence (P22309 26-533): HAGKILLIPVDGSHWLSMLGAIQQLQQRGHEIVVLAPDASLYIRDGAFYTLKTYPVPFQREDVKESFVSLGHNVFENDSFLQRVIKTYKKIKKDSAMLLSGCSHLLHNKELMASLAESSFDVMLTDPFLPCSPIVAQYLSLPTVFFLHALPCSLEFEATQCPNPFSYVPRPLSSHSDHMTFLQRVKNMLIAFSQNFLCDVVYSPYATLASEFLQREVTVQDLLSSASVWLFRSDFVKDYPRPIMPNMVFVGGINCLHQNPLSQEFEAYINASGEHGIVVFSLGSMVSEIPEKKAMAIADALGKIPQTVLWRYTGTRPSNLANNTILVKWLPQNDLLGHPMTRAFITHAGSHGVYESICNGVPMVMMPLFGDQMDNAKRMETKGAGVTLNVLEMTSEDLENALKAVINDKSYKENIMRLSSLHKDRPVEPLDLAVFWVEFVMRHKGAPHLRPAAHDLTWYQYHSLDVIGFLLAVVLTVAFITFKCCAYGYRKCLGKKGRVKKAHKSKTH
Experimental: (§1) A panel of recombinant human UGT supersomes (UGT1A1, UGT1A3, UGT1A4, UGT1A6, UGT1A7, UGT1A8, UGT1A9, UGT1A10, UGT2B4, UGT2B7, UGT2B15, and UGT2B17) expressed in baculovirus-infected insect cells were purchased from BD Gentest Corp. (Woburn, MA, USA).
(§2) 4-MU, a nonselective substrate of UGTs, was used as probe substrate for all UGTs except UGT1A4. Incubations with each individual enzyme were conducted using conditions previously described. There was a 5 min preincubation step at 37°C before the reaction was started by addition of UDPGA. The incubation mixtures were then centrifuged at 20,500 ×g for 15 min to obtain the supernatant. Aliquots (20 μL) were then analyzed by HPLC. The HPLC system (SHIMADZU, Kyoto, Japan) consisted of an SCL-10A system controller, two LC-10AT pumps, a SIL-10A auto injector, and a SPD-10AVP UV detector. Chromatographic separation was achieved using a Kromasil ODS column (4.6 × 150 mm I.D., 5 μm particle size) at a flow rate of 1 mL/min and UV detection at 316 nm. The mobile phase consisted of 10 mM KH2PO4, pH 2.7 (A) and acetonitrile (B). The following gradient was applied at a flow rate of 1 mL/min: 0–4 min 80% A and 20% B, 4.1–8 min 50% A and 50% B, 8.1–12 min, 30% A and 70% B. All experiments were performed in two independent experiments in duplicate.
A typical incubation mixture contained recombinant human UGTs, 5 mM MgCl2, 5 mM UDPGA, 50 μg/mg protein alamethicin, 50 mM Tris-HCl buffer (pH 7.4), and various probe substrates of UGTs in the absence or presence of different concentrations of inhibitors. […] The final concentration of DMSO in the incubation system was 1% (v/v). […]
(§3) Inhibition data from experiments were graphically represented by Dixon plots. K i values were calculated by nonlinear regression using the equations for competitive inhibition (1), noncompetitive inhibition (2), or mixed inhibition (3), [22] […] The type of inhibition was determined from the enzyme inhibition models. Goodness of fit to kinetic and inhibition models was assessed from the F statistic, r ^2 values, parameter standard error estimates, and 95% confidence intervals. […]

UGT2B7 = molecular target: T2, UGT2B7 (Homo sapiens, UniProt P16662); test: Inhibition of recombinant UGT2B7 activity (4-MU glucuronidation)
T2 sequence (P16662 24-529): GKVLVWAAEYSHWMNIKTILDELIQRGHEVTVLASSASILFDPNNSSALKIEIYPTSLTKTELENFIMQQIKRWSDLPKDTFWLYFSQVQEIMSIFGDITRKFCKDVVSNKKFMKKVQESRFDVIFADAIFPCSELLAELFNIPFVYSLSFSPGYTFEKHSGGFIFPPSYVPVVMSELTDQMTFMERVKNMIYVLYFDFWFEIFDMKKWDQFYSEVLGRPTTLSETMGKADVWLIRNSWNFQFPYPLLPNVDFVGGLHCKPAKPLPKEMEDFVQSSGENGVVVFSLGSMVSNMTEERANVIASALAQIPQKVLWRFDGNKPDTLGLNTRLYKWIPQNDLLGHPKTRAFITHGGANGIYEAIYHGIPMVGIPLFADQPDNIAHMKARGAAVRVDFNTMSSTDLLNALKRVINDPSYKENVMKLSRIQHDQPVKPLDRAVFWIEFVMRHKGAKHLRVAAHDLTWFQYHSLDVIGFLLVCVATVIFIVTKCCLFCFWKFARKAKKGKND
Experimental: as §1, §2
A typical incubation mixture contained recombinant human UGTs, 5 mM MgCl2, 5 mM UDPGA, 50 μg/mg protein alamethicin, 50 mM Tris-HCl buffer (pH 7.4), and various probe substrates of UGTs in the absence or presence of different concentrations of inhibitors. […] The final concentration of DMSO in the incubation system was 1% (v/v). […] Known UGT inhibitors were used as positive controls: diclofenac for UGT1A1, UGT1A6, UGT1A7, and UGT1A9; androsterone for UGT1A3, UGT2B7, and UGT2B15, phenylbutazone for UGT1A8 and UGT1A10, and hecogenin for UGT1A4, respectively. There is no positive control reported available for UGT2B4 and UGT2B17. The negative controls are the incubation without UDPGA. […] The final concentration of DMSO in the incubation system was 1% (v/v). […] There was a 5 min preincubation step at 37°C before the reaction was started by the addition of UDPGA. Incubation times were 120 min for UGT1A1, UGT1A10, UGT2B4, UGT2B15, and UGT2B17, 75 min for UGT1A3, and 30 min for UGT1A4, UGT1A6, UGT1A7, UGT1A8, and UGT1A9. The reactions were quenched by adding 100 μL acetonitrile and internal standard. The incubation mixtures were then centrifuged at 20,500 ×g for 15 min to obtain the supernatant. An aliquot of the supernatant was used for HPLC analysis as described above. All experiments were performed in two independent experiments in duplicate.
as §3

Row | SMILES | IC50 (UGT1A1) | IC50 (UGT2B7)
1 | COc1ccc(-c2oc3c(CC=C(C)C)c(O[C@@H]4O[C@H](CO)[C@@H](O)[C@H](O)[C@H]4O)cc(O)c3c(=O)c2O[C@@H]2O[C@@H](C)[C@H](O)[C@@H](O)[C@H]2O)cc1 [Icariin] | > 100 µM | > 100 µM
2 | COc1ccc(-c2oc3c(CC=C(C)C)c(O[C@@H]4O[C@H](CO)[C@@H](O)[C@H](O)[C@H]4O)cc(O)c3c(=O)c2O)cc1 [Icariside I] | > 100 µM | > 100 µM
3 | COc1ccc(-c2oc3c(CC=C(C)C)c(O)cc(O)c3c(=O)c2O)cc1 [Icaritin] | > 100 µM | > 100 µM
